Two molecules from ChEMBL document CHEMBL3102702, “Protein kinase and HDAC inhibitors from the endophytic fungus Epicoccum nigrum” (J Nat Prod, 2014) can be followed below.

SMILES strings stand for the structures.

Assay [1] concerns the target Serine/threonine-protein kinase N1 (Homo sapiens, UniProt Q16512). In words: Inhibition of PRK1 (unknown origin).
Assay [2] deals with Proto-oncogene tyrosine-protein kinase Src (Homo sapiens, UniProt P12931). In words: Inhibition of SRC (unknown origin).
In assay [3] the target is T1, Serine/threonine-protein kinase Nek2 (Homo sapiens, UniProt P51955).
T1 sequence (P51955 whole entry): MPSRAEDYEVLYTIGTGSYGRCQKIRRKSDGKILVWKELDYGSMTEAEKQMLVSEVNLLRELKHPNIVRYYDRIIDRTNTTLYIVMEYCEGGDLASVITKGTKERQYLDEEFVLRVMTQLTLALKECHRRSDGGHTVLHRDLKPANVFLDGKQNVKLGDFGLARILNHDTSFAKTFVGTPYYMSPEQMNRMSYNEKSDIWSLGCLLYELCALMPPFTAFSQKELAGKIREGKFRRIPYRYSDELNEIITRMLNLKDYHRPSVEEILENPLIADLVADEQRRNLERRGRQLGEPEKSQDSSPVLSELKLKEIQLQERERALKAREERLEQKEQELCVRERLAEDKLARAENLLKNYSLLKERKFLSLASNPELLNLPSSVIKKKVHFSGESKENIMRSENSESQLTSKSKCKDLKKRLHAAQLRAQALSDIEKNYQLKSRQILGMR
In words: Inhibition of NEK2 (unknown origin).

Assay [4] concerns the target Serine/threonine-protein kinase PLK1 (Homo sapiens, UniProt P53350). In words: Inhibition of PLK1 (unknown origin).
For assay [5], the target named is Histone deacetylase 3 (Homo sapiens, UniProt O15379). In words: Inhibition of recombinant HDAC3 (unknown origin) using Fluor-de-Lys-SIRT1 as substrate by fluorescence assay.
The target of assay [6] is Aurora kinase B (Homo sapiens, UniProt Q96GD4). In words: Inhibition of aurora-B (unknown origin).
The target of assay [7] is RAC-alpha serine/threonine-protein kinase (Homo sapiens, UniProt P31749). In words: Inhibition of AKT1 (unknown origin).
Assay [8] has as its target Hepatocyte growth factor receptor (Homo sapiens, UniProt P08581). In words: Inhibition of wild type MET (unknown origin).
The target of assay [9] is Vascular endothelial growth factor receptor 2 (Homo sapiens, UniProt P35968). In words: Inhibition of VEGFR2 (unknown origin).
Assay [10] has as its target Histone deacetylase 11 (Homo sapiens, UniProt Q96DB2). In words: Inhibition of recombinant HDAC11 (unknown origin) using Fluor-de-Lys-SIRT1 as substrate by fluorescence assay.
For assay [11], the target named is ALK tyrosine kinase receptor (Homo sapiens, UniProt Q9UM73). In words: Inhibition of ALK (unknown origin).
In assay [12] the target is Serine/threonine-protein kinase Nek6 (Homo sapiens, UniProt Q9HC98). In words: Inhibition of NEK6 (unknown origin).
For assay [13], the target named is Histone deacetylase 1 (Homo sapiens, UniProt Q13547). In words: Inhibition of recombinant HDAC1 (unknown origin) using Fluor-de-Lys-SIRT1 as substrate by fluorescence assay.
For assay [14], the target named is Histone deacetylase. In words: Inhibition of HDAC in human K562 cell extract using Fluor-de-Lys deacetylase as substrate preincubated for 45 mins measured after 15 mins by fluorescence assay. Type of assay: protein assay.
The target of assay [15] is Focal adhesion kinase 1 (Homo sapiens, UniProt Q05397). In words: Inhibition of FAK (unknown origin).
Assay [16] deals with Polyamine deacetylase HDAC10 (Homo sapiens, UniProt Q969S8). In words: Inhibition of recombinant HDAC10 (unknown origin) using Fluor-de-Lys-SIRT1 as substrate by fluorescence assay.
In assay [17] the target is Serine/threonine-protein kinase pim-1 (Homo sapiens, UniProt P11309). In words: Inhibition of PIM1 (unknown origin).
The target in assay [18] is T2, NUAK family SNF1-like kinase 1 (Homo sapiens, UniProt O60285).
T2 sequence (O60285 whole entry): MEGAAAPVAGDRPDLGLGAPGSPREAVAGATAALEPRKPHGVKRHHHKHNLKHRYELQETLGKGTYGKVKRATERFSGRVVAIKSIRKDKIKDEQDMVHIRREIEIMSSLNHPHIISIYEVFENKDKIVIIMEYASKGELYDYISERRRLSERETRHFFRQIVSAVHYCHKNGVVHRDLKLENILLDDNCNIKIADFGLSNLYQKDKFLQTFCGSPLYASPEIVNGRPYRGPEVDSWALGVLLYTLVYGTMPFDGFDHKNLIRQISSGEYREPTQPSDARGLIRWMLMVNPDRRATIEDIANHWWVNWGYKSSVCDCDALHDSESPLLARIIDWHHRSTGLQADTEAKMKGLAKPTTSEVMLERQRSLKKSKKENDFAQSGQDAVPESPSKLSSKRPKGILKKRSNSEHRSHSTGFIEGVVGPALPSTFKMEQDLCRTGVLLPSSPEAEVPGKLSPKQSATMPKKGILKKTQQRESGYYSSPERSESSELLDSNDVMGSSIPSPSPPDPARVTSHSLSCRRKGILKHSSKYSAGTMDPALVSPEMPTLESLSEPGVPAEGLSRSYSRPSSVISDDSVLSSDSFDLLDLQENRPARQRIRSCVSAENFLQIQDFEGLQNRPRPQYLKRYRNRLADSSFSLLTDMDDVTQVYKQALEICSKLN
In words: Inhibition of ARK5 (unknown origin).

Sequence of RAC-alpha serine/threonine-protein kinase (P31749 whole entry): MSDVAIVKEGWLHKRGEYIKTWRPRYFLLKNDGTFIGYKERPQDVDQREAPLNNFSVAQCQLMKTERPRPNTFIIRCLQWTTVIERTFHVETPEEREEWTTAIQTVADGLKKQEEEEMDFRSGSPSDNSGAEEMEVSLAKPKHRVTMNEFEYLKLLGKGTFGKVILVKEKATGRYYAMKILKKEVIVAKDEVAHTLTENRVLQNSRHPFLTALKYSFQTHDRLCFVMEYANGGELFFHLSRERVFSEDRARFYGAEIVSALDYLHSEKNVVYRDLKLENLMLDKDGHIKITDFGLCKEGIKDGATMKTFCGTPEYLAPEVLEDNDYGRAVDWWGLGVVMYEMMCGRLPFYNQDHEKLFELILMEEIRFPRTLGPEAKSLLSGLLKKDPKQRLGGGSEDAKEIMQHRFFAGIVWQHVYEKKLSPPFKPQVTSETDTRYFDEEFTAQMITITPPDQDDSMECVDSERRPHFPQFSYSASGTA
Sequence of Histone deacetylase 3 (O15379 whole entry): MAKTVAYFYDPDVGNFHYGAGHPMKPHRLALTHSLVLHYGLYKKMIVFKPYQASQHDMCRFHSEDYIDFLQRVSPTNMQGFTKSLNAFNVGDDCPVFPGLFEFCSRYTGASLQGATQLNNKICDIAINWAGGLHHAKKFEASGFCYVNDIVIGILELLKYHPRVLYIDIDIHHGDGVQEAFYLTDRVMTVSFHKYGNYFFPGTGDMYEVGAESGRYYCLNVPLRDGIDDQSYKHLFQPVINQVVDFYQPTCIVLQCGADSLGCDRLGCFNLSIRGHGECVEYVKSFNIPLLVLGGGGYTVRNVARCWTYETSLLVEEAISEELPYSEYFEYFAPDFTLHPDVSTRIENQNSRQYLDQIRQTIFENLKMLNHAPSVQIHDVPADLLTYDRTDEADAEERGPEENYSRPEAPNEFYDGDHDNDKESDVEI
Sequence of Aurora kinase B (Q96GD4 whole entry): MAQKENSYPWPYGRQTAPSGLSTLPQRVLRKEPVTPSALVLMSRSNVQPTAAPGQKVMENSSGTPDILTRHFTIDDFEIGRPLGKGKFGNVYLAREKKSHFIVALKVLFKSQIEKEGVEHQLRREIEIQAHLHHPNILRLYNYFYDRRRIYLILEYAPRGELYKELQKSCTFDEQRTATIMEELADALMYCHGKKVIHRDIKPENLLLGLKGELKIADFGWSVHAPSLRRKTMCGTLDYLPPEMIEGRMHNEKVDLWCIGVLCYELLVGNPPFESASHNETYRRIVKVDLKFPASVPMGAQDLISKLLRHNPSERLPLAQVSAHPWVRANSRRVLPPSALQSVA
Sequence of Serine/threonine-protein kinase Nek6 (Q9HC98 whole entry): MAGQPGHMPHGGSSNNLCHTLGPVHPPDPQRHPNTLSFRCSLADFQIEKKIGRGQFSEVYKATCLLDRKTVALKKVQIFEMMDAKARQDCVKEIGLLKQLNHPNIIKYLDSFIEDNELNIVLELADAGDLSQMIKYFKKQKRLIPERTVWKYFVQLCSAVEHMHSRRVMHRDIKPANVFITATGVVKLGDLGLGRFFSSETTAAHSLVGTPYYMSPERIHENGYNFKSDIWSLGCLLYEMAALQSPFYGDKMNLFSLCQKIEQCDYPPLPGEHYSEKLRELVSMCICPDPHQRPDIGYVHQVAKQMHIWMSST
Sequence of Polyamine deacetylase HDAC10 (Q969S8 whole entry): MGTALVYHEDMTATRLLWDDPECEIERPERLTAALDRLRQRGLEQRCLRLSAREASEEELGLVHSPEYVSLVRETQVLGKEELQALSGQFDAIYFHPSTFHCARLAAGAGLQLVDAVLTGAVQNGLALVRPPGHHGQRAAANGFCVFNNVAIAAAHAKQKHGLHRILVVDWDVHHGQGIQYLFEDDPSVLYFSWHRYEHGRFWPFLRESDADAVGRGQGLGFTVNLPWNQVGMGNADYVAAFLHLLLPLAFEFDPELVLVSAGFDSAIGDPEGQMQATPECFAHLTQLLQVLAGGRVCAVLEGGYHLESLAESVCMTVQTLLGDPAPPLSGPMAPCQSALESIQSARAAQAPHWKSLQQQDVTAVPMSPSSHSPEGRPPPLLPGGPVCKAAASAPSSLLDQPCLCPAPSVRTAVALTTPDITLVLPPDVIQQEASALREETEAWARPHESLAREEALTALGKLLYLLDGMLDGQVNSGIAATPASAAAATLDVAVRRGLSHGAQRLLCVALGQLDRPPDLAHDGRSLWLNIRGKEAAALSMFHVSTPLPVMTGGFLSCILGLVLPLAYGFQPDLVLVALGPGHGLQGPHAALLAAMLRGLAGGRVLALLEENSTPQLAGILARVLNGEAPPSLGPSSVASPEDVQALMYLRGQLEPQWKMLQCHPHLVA
Sequence of Vascular endothelial growth factor receptor 2 (P35968 whole entry): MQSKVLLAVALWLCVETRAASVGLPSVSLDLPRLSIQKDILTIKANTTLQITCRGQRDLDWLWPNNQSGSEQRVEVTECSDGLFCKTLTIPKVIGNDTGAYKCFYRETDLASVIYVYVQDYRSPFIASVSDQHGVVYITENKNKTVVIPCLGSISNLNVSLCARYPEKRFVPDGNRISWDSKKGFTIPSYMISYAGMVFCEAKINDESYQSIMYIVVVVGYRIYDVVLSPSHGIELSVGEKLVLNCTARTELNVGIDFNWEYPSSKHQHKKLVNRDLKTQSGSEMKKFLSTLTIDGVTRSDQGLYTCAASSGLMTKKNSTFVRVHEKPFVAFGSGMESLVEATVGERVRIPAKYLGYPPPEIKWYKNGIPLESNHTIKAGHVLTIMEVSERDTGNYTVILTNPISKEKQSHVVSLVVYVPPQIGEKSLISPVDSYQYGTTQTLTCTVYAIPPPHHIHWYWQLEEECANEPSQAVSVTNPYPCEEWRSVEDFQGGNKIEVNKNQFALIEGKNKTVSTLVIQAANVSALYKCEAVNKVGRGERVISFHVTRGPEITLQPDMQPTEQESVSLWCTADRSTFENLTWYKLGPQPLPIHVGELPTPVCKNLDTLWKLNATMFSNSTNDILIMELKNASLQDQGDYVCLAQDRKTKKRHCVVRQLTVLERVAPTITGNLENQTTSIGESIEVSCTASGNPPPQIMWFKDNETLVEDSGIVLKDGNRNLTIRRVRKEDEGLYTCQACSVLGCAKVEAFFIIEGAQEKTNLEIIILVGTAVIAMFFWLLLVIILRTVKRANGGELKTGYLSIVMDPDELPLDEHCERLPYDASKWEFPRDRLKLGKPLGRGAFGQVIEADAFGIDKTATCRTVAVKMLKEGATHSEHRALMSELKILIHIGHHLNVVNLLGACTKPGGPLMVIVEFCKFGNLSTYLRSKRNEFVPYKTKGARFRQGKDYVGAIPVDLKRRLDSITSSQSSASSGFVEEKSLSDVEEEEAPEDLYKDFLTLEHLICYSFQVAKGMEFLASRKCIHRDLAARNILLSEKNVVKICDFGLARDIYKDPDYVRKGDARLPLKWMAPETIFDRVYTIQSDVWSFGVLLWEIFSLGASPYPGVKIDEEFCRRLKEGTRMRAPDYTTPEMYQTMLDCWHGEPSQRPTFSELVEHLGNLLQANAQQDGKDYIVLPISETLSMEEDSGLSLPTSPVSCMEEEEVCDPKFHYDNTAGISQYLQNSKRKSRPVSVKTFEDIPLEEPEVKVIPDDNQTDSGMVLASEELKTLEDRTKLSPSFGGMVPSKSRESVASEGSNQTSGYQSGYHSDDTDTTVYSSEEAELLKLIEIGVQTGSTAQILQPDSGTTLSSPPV
Sequence of Proto-oncogene tyrosine-protein kinase Src (P12931 2-536 limits assumed): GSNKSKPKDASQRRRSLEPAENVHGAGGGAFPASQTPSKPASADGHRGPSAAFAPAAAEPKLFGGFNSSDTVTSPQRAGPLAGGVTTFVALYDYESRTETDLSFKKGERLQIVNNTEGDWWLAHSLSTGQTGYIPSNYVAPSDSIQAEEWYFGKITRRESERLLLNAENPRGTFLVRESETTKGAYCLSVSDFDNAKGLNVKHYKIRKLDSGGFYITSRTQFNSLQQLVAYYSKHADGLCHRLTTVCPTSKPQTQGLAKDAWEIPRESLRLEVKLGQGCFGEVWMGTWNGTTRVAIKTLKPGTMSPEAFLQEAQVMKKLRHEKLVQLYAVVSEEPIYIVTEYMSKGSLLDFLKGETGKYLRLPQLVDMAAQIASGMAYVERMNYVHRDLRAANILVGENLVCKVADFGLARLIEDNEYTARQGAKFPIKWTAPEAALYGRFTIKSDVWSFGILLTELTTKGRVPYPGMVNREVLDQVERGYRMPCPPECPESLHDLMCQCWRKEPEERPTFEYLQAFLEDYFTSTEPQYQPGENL
Sequence of Histone deacetylase 1 (Q13547 whole entry): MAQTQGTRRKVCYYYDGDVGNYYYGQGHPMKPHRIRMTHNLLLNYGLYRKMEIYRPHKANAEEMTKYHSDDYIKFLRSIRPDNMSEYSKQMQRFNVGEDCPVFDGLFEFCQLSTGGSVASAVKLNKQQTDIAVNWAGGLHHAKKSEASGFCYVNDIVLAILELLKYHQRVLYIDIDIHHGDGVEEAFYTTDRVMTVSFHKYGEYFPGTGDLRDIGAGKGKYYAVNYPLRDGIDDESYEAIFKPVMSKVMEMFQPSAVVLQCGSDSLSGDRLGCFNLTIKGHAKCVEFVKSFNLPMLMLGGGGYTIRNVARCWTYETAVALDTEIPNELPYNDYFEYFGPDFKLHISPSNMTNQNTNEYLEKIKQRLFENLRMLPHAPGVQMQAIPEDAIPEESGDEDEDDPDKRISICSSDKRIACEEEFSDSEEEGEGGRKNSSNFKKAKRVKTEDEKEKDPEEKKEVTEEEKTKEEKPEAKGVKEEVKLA
Sequence of Histone deacetylase 11 (Q96DB2 whole entry): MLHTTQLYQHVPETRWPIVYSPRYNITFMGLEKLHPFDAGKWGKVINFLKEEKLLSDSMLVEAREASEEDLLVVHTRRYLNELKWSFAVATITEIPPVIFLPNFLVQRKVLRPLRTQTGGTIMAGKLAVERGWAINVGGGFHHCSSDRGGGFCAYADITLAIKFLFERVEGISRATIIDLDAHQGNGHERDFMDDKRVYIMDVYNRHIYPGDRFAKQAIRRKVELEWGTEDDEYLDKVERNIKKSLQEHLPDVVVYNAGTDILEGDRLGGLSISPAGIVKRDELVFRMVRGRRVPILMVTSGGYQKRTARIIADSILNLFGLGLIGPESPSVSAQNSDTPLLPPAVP

By IC50 is commonly meant the midpoint of a concentration-inhibition curve. For the molecule `Cc1c(O)c(O)c2c(c1C=O)[C@@H]1O[C@H](O2)c2c(C)c(O)c(O)c(O)c2C1=O` (racemic), the IC50 in assay [1] worked out at 4.48 µM; in assay [2], 370 nM; in [3] it was 1830 nM; in [4], 3.18 µM; in assay [5], 12.4 µM; in [6], 2.51 µM. Further, the IC50 in [7] worked out at 2.15 µM; in assay [8], 580 nM; in assay [9], 320 nM; in [10] it was 11.7 µM; in assay [11], 180 nM; in assay [12], 520 nM. For the same molecule, the IC50 in [13] turned out to be 8.6 µM; in assay [14], 9.8 µM; in assay [15] it was 420 nM; in assay [16], 8.4 µM; in assay [17], 3.1 µM; in [18], 2.51 µM.
For the molecule `Cc1c(O)c(O)c(O)c(C=O)c1-c1cc2c(C=O)c(C)c(O)c(O)c2o1`, the half-inhibitory concentration (IC50) in [1] was determined as 9 µM; in [2] it was 490 nM; in [3], 3780 nM; in assay [4], 6.31 µM; in [5] it was 6.9 µM; in assay [6] it was 7.29 µM. The half-inhibitory concentration (IC50) amounted to 4.07 µM in assay [7]; 1120 nM in assay [8]; 390 nM in assay [9]; 12.9 µM in assay [10]; 250 nM in assay [11]; 1850 nM in assay [12]. Besides, the half-maximal inhibitory concentration (IC50) in assay [13] is 8.8 µM; in assay [14] it was 14.2 µM; in assay [15], 800 nM; in [16] it was 8.1 µM; in assay [17] it was 4.44 µM; in [18] it was 3.77 µM.
